Measured values taken from patent publication US20250304620A1, “ANTIMICROBIAL PEPTIDE AND APPLICATION THEREOF” (priority 2023, published 2025).
Marks after values point to notes of the source that are not given here. Non-standard residues stand in square brackets, D forms with d. PEG200 = polyethylene glycol 200, conjugated to the C-terminus; PEG500 = polyethylene glycol 500, conjugated to the C-terminus; 2Nal = N[C@@H](Cc1ccc2ccccc2c1)C(=O)O; PEG1000 = polyethylene glycol 1000

What was measured:
[1] = tested on: Bacillus subtilis ATCC 6633; type: cell-based
Text: (§1) According to the Standards of Clinical and Laboratory Standards Institute (CLSI) of the USA for antimicrobial drug susceptibility test operation standards, the micronutrient serial twofold dilution method was used further determine MICs of 30 AMPs (S/N: LV-1 to LV-30) 10 clinically common sensitive strains and 6 fungi in clinical practice. The experiment was repeated 5 times in parallel.

[2] = tested on: Candida albicans ATCC MYA-2876; type: cell-based
Text: as §1

[3] = tested on: Candida glabrata ATCC 15126; type: cell-based
Text: as §1

Candida krusei ATCC 6258 = type: cell-based
Text: as §1

[4] = tested on: Candida tropicalis ATCC 750; type: cell-based
Text: as §1

Candida utilis ATCC 9950 = type: cell-based
Text: as §1

[5] = tested on: Corynebacterium ATCC 7715; type: cell-based
Text: as §1

Enterococcus ATCC 29212 = type: cell-based
Text: as §1

[6] = tested on: Escherichia coli ATCC 25922; type: cell-based
Text: as §1

[7] = tested on: Klebsiella pneumoniae ATCC 700603; type: cell-based
Text: as §1

[8] = tested on: Pseudomonas aeruginosa ATCC 27853; type: cell-based
Text: as §1

[9] = tested on: Salmonella typhimurium ATCC 14028; type: cell-based
Text: as §1

[10] = tested on: Serratia marcescens ATCC 29021; type: cell-based
Text: as §1

[11] = tested on: Staphylococcus aureus ATCC 25923; type: cell-based
Text: as §1

[12] = tested on: Trichophyton ATCC MYA-4438; type: cell-based
Text: as §1

[13] = tested on: Methicillin-resistant Staphylococcus aureus (MRSA); type: cell-based; details: drug-resistant strain MRSA
Text: (§2) According to the Standards of Clinical and Laboratory Standards Institute (CLSI) of the USA for antimicrobial drug susceptibility test operation standards, the micronutrient serial twofold dilution method was used further determine MICs of the antimicrobial peptides LV-1 to LV-30 against 5 clinically common drug-resistant bacterial strains. The experiment was repeated 5 times in parallel. […] The tested drug-resistant strains included Methicillin-resistant Staphylococcus aureus (MRSA), carbapenem-resistant Escherichia coli (CREC), vancomycin-resistant Enterococcus (VRE), carbapenem-resistant Pseudomonas aeruginosa (CRPA), and carbapenem-resistant Klebsiella pneumoniae (CRKP).

[14] = tested on: carbapenem-resistant Escherichia coli (CREC); type: cell-based; details: drug-resistant strain CREC
Text: as §2

[15] = tested on: carbapenem-resistant Klebsiella pneumoniae (CRKP); type: cell-based; details: drug-resistant strain CRKP
Text: as §2

[16] = tested on: carbapenem-resistant Pseudomonas aeruginosa (CRPA); type: cell-based; details: drug-resistant strain CRPA
Text: as §2

[17] = tested on: vancomycin-resistant Enterococcus (VRE); type: cell-based; details: drug-resistant strain VRE
Text: as §2

[18] = tested on: Staphylococcus aureus (NRS 384); details: MIC vs Staphylococcus aureus (NRS 384) after trypsin treatment 1:10 (w/w), 37° C., 3 h
Protocol: Trypsin (250 U/mg, pH=8.0) and AMPs (LV-1 to LV-30) were mixed in a ratio of 1:10 (w/w) and added to a reaction buffer (0.2 M sodium phosphate, 1 mM CaCl2), pH 7.5), and then incubated at 37° C. for 3 h.

[19] = tested on: Pseudomonas aeruginosa ATCC 27853; assay: Injectable formulations on mice infected with peritonitis; type: in vivo, ICR mice; details: twice a day for 3 days; for Number of mice that died on each day after infection: day 1 / Number of mice that died on each day after infection: day 2 / Number of mice that died on each day after infection: day 3 / Number of mice that died on each day after infection: day 4 / Number of mice that died on each day after infection: day 5 / Average survival times (Days): n = 10; for Average survival times (Days): observed for 14 d
Protocol: Both female and male ICR mice were used in the test, half of the female and male mice were taken and randomly assigned into groups, with 10 mice in each group, and kept in separate cages. The mice were divided into a blank control group, a negative control group, a positive control Levofloxacin group, and AMPs LV-1 to LV-30 groups. A bacterial suspension of Pseudomonas aeruginosa ATCC 27853 was prepared, a concentration of the suspension was adjusted 1×10^9 CFU/mL for subsequent use. Except for the blank control group, all other mice were injected with the bacterial suspension (0.2 mL, 1×10^9 CFU/mL), into abdominal cavity of the mice, to establish a model. After the model was successfully established, the mice were given drug immediately according to their body weights. Except for the blank control group and the negative control group, the mice in all other groups were administered the corresponding injectable formulations via tail vein, twice a day for 3 consecutive days. The mice were then observed for 14 d. The death of mice in each group was observed, and survival time of the mice was recorded. Results of the effect of the injectable formulations of AMPs LV-1 to LV-30 on the survival time of mice infected with Pseudomonas aeruginosa are shown in Table 10.

## Ac-RKLLXRLKXRK-PEG200 [LV-26] (Ac-RKLL[2Nal]RLK[2Nal]RK-PEG200) [polyethylene glycol 200 conjugated to C-terminal; X=3-(2-naphthyl)-alanine]
[1]
  MIC Bacillus subtilis ATCC 6633: 4 µg/mL
[2]
  MIC Candida albicans ATCC MYA-2876: 8 µg/mL
[3]
  MIC Candida glabrata ATCC 15126: 8 µg/mL
Candida krusei ATCC 6258
  MIC Candida krusei ATCC 6258: 4 µg/mL
[4]
  MIC Candida tropicalis ATCC 750: 8 µg/mL
Candida utilis ATCC 9950
  MIC Candida utilis ATCC 9950: 16 µg/mL
[5]
  MIC Corynebacterium ATCC 7715: 2 µg/mL
Enterococcus ATCC 29212
  MIC Enterococcus ATCC 29212: 8 µg/mL
[6]
  MIC Escherichia coli ATCC 25922: 2 µg/mL
[7]
  MIC Klebsiella pneumoniae ATCC 700603: 4 µg/mL
[8]
  MIC Pseudomonas aeruginosa ATCC 27853: 4 µg/mL
[9]
  MIC Salmonella typhimurium ATCC 14028: 2 µg/mL
[10]
  MIC Serratia marcescens ATCC 29021: 8 µg/mL
[11]
  MIC Staphylococcus aureus ATCC 25923: 1 µg/mL
[12]
  MIC Trichophyton ATCC MYA-4438: 16 µg/mL
[13]
  MIC MRSA: 4 µg/mL
[14]
  MIC CREC: 8 µg/mL
[15]
  MIC CRKP: 2 µg/mL
[16]
  MIC CRPA: 4 µg/mL
[17]
  MIC VRE: 2 µg/mL
[18]
  Trypsin MIC: 1 µg/mL
[19]; 1 mg/kg via tail vein
  Number of mice that died on each day after infection: day 1: 1 Mouse
  Number of mice that died on each day after infection: day 2: 1 Mouse
  Number of mice that died on each day after infection: day 3: 1 Mouse
  Number of mice that died on each day after infection: day 4: 1 Mouse
  Number of mice that died on each day after infection: day 5: 1 Mouse
  Average survival times (Days): 8.5** Days

## Ac-RKLLXRLKXRK-PEG500 [LV-27] (Ac-RKLL[2Nal]RLK[2Nal]RK-PEG500) [polyethylene glycol 500 conjugated to C-terminal; X=3-(2-naphthyl)-alanine]
[1]
  MIC Bacillus subtilis ATCC 6633: 2 µg/mL
[2]
  MIC Candida albicans ATCC MYA-2876: 8 µg/mL
[3]
  MIC Candida glabrata ATCC 15126: 8 µg/mL
Candida krusei ATCC 6258
  MIC Candida krusei ATCC 6258: 8 µg/mL
[4]
  MIC Candida tropicalis ATCC 750: 4 µg/mL
Candida utilis ATCC 9950
  MIC Candida utilis ATCC 9950: 16 µg/mL
[5]
  MIC Corynebacterium ATCC 7715: 8 µg/mL
Enterococcus ATCC 29212
  MIC Enterococcus ATCC 29212: 2 µg/mL
[6]
  MIC Escherichia coli ATCC 25922: 1 µg/mL
[7]
  MIC Klebsiella pneumoniae ATCC 700603: 8 µg/mL
[8]
  MIC Pseudomonas aeruginosa ATCC 27853: 1 µg/mL
[9]
  MIC Salmonella typhimurium ATCC 14028: 2 µg/mL
[10]
  MIC Serratia marcescens ATCC 29021: 4 µg/mL
[11]
  MIC Staphylococcus aureus ATCC 25923: 1 µg/mL
[12]
  MIC Trichophyton ATCC MYA-4438: 8 µg/mL
[13]
  MIC MRSA: 8 µg/mL
[14]
  MIC CREC: 4 µg/mL
[15]
  MIC CRKP: 4 µg/mL
[16]
  MIC CRPA: 4 µg/mL
[17]
  MIC VRE: 8 µg/mL
[18]
  Trypsin MIC: 1 µg/mL
[19]; 0.2 mg/kg via tail vein
  Number of mice that died on each day after infection: day 1: 2 Mouse
  Number of mice that died on each day after infection: day 2: 2 Mouse
  Number of mice that died on each day after infection: day 3: 0 Mouse
  Number of mice that died on each day after infection: day 4: 1 Mouse
  Number of mice that died on each day after infection: day 5: 1 Mouse
  Average survival times (Days): 7.1** Days
[19]; 1 mg/kg via tail vein
  Number of mice that died on each day after infection: day 1: 1 Mouse
  Number of mice that died on each day after infection: day 2: 1 Mouse
  Number of mice that died on each day after infection: day 3: 0 Mouse
  Number of mice that died on each day after infection: day 4: 1 Mouse
  Number of mice that died on each day after infection: day 5: 0 Mouse
  Average survival times (Days): 10.5**** Days
[19]; 5 mg/kg via tail vein
  Number of mice that died on each day after infection: day 1: 0 Mouse
  Number of mice that died on each day after infection: day 2: 3 Mouse
  Number of mice that died on each day after infection: day 3: 0 Mouse
  Number of mice that died on each day after infection: day 4: 1 Mouse
  Number of mice that died on each day after infection: day 5: 0 Mouse
  Average survival times (Days): 9.4*** Days
[19]; tail vein, observed 14 d
  survival time of mice infected with Pseudomonas aeruginosa: superior to those of the Levofloxacin group

## Ac-RKLLXRLKXRK-PEG1000 [LV-28] (Ac-RKLL[2Nal]RLK[2Nal]RK-PEG1000) [polyethylene glycol 1000 conjugated to C-terminal; X=3-(2-naphthyl)-alanine]
[1]
  MIC Bacillus subtilis ATCC 6633: 4 µg/mL
[2]
  MIC Candida albicans ATCC MYA-2876: 8 µg/mL
[3]
  MIC Candida glabrata ATCC 15126: 8 µg/mL
Candida krusei ATCC 6258
  MIC Candida krusei ATCC 6258: 4 µg/mL
[4]
  MIC Candida tropicalis ATCC 750: 4 µg/mL
Candida utilis ATCC 9950
  MIC Candida utilis ATCC 9950: 8 µg/mL
[5]
  MIC Corynebacterium ATCC 7715: 8 µg/mL
Enterococcus ATCC 29212
  MIC Enterococcus ATCC 29212: 8 µg/mL
[6]
  MIC Escherichia coli ATCC 25922: 2 µg/mL
[7]
  MIC Klebsiella pneumoniae ATCC 700603: 4 µg/mL
[8]
  MIC Pseudomonas aeruginosa ATCC 27853: 2 µg/mL
[9]
  MIC Salmonella typhimurium ATCC 14028: 4 µg/mL
[10]
  MIC Serratia marcescens ATCC 29021: 8 µg/mL
[11]
  MIC Staphylococcus aureus ATCC 25923: 2 µg/mL
[12]
  MIC Trichophyton ATCC MYA-4438: 8 µg/mL
[13]
  MIC MRSA: 4 µg/mL
[14]
  MIC CREC: 4 µg/mL
[15]
  MIC CRKP: 4 µg/mL
[16]
  MIC CRPA: 8 µg/mL
[17]
  MIC VRE: 4 µg/mL
[18]
  Trypsin MIC: 1 µg/mL
[19]; 1 mg/kg via tail vein
  Number of mice that died on each day after infection: day 1: 1 Mouse
  Number of mice that died on each day after infection: day 2: 0 Mouse
  Number of mice that died on each day after infection: day 3: 1 Mouse
  Number of mice that died on each day after infection: day 4: 1 Mouse
  Number of mice that died on each day after infection: day 5: 1 Mouse
  Average survival times (Days): 9.7*** Days
